In one assay the test system is MV-4-11 cells. The assay is described as follows: Oncology cell growth assay MV-4-11 (CellTiter Glo). Type of assay: cell-based. The conditions noted are these: Homo sapiens, MV4-11, 72 h; read-out: Cell activity (IC50 μM) MV-4-11 3d-Growth. In outline:
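Growth read by CellTiter Glo luminescence after 72 h compound treatment of MLL-AF4-bearing MV-4-11 cells (3000/well). Titration: 8 points, 1:3 steps, maximum 10 μM, 0.2% DMSO final. Data normalized to DMSO wells, four-parameter fit gives pIC50.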
A general note: In ATP-based viability assays light output follows the ATP content of the culture.

In another assay the test system is bromodomain. The assay is described as follows: at least one of the bromodomain cell assays of Example 57. It is filed as cell-based. Conditions: at least one of the bromodomain cell assays described in Example 57; read-out: IC50 in at least one of the bromodomain cell assays.
For the next assay, the target named is BRD4-BD12 (1-477) (Homo sapiens (Human), UniProt O60885). The assay can be described thus: Alphascreen binding assay BRD4-BD12. Conditions: BRD4(1 2) H4; read-out: Biochemical activity (IC50 μM) BRD4(1 2) H4. In outline:
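In this competition format, compounds displace a biotinylated tetra-acetyl H4 peptide from E. coli-expressed human BRD4 bromodomain constructs captured on nickel chelate beads. The reaction runs at pH 7.5 with 2 mM DTT and detergent for 1 h at room temperature before a 30 min bead step.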
A general note: Alpha assays give light when donor and acceptor beads are brought close together.

SMILES strings stand for the structures.

The IC50 is the concentration that gives 50% inhibition. As to `Cc1noc(C)c1-c1cnc2c(-c3ccc(C(=O)O)cc3)cn(CC3(F)CCC(F)(F)CC3)c2c1` [P-0382, 4-[6-(3,5-dimethylisoxazol-4-yl)-1-[(1,4,4-trifluorocyclohexyl)methyl]pyrrolo[3,2-b]pyridin-3-yl]benzoic acid], the figures for the IC50 in the assay on MV-4-11 cells, with bromodomain and on BRD4-BD12 (1-477) were less than 1 µM, less than 10 µM and less than 1 µM, respectively.
With `Cc1noc(C)c1-c1cnc2c(-c3ccc(CC(=O)O)cc3)cn(CC3(F)CCCCC3)c2c1` [P-0383, 2-[4-[6-(3,5-dimethylisoxazol-4-yl)-1-[(1-fluorocyclohexyl)methyl]pyrrolo[3,2-b]pyridin-3-yl]phenyl]acetic acid], the IC50 in the assay on MV-4-11 cells was less than 1 µM; with bromodomain it was less than 10 µM; at BRD4-BD12 (1-477) it was less than 1 µM.
Take `Cc1noc(C)c1-c1cnc2c(-c3cccc(CC(=O)O)c3)cn(CC3(F)CCCCC3)c2c1` [P-0384, 2-[3-[6-(3,5-dimethylisoxazol-4-yl)-1-[(1-fluorocyclohexyl)methyl]pyrrolo[3,2-b]pyridin-3-yl]phenyl]acetic acid]: the values for the IC50 in the assay with MV-4-11 cells, in the assay with bromodomain and at BRD4-BD12 (1-477) were less than 1 µM, less than 10 µM and less than 1 µM, respectively.
Consider `Cc1noc(C)c1-c1cnc2c(-c3ccc(C4(C(=O)O)CC4)cc3)cn(CC3(F)CCCCC3)c2c1` [P-0385, 1-[4-[6-(3,5-dimethylisoxazol-4-yl)-1-[(1-fluorocyclohexyl)methyl]pyrrolo[3,2-b]pyridin-3-yl]phenyl]cyclopropanecarboxylic acid], for which the half-maximal inhibitory concentration (IC50) with MV-4-11 cells is less than 1 µM; in the assay with bromodomain it was less than 10 µM; on BRD4-BD12 (1-477) it was less than 1 µM.
Regarding `Cc1noc(C)c1-c1cnc2c(-c3cnn(CC(=O)O)c3)cn(CC3(F)CCC(F)(F)CC3)c2c1` [P-0386, 2-[4-[6-(3,5-dimethylisoxazol-4-yl)-1-[(1,4,4-trifluorocyclohexyl)methyl]pyrrolo[3,2-b]pyridin-3-yl]pyrazol-1-yl]acetic acid], the figures for the half-inhibitory concentration (IC50) in the assay with MV-4-11 cells, in the assay with bromodomain and on BRD4-BD12 (1-477) were 10 to 200 µM, less than 10 µM and less than 1 µM, respectively.
For `COC(=O)c1ccc(-c2cn(CC3(F)CCC(F)(F)CC3)c3cc(-c4c(C)noc4C)cnc23)cc1F` [P-0387, methyl 4-[6-(3,5-dimethylisoxazol-4-yl)-1-[(1,4,4-trifluorocyclohexyl)methyl]pyrrolo[3,2-b]pyridin-3-yl]-2-fluoro-benzoate], in that order: less than 1 µM, less than 10 µM and less than 1 µM.
For `Cc1noc(C)c1-c1cnc2c(-c3cccnc3)cn(CC3CCC(F)(F)CC3)c2c1` [P-0388, 4-[1-[(4,4-difluorocyclohexyl)methyl]-3-(3-pyridyl)pyrrolo[3,2-b]pyridin-6-yl]-3,5-dimethyl-isoxazole], the concentration for half-maximal inhibition (IC50) in the assay on MV-4-11 cells is less than 1 µM; in the assay with bromodomain, less than 10 µM; at BRD4-BD12 (1-477), less than 1 µM.
With `Cc1noc(C)c1-c1cnc2c(-c3ccc(C(N)=O)cc3)cn(CC3CCC(F)(F)CC3)c2c1` [P-0389, 4-[1-[(4,4-difluorocyclohexyl)methyl]-6-(3,5-dimethylisoxazol-4-yl)pyrrolo[3,2-b]pyridin-3-yl]benzamide], the IC50 is less than 1 µM in the assay on MV-4-11 cells, less than 10 µM in the assay on bromodomain and less than 1 µM at BRD4-BD12 (1-477).
Regarding `COc1ccc(-c2cn(CC3CCC(F)(F)CC3)c3cc(-c4c(C)noc4C)cnc23)cn1` [P-0390, 4-[1-[(4,4-difluorocyclohexyl)methyl]-3-(6-methoxy-3-pyridyl)pyrrolo[3,2-b]pyridin-6-yl]-3,5-dimethyl-isoxazole], the half-inhibitory concentration (IC50) in the assay with MV-4-11 cells was less than 1 µM; with bromodomain, less than 10 µM; at BRD4-BD12 (1-477) it was less than 1 µM.
In the case of `COc1ncc(-c2cn(CC3CCC(F)(F)CC3)c3cc(-c4c(C)noc4C)cnc23)cn1` [P-0391, 4-[1-[(4,4-difluorocyclohexyl)methyl]-3-(2-methoxypyrimidin-5-yl)pyrrolo[3,2-b]pyridin-6-yl]-3,5-dimethyl-isoxazole], the 50% inhibitory concentration (IC50) with MV-4-11 cells is less than 1 µM; with bromodomain it was less than 10 µM; on BRD4-BD12 (1-477), less than 1 µM.
Regarding `Cc1noc(C)c1-c1cnc2c(-c3cn[nH]c3)cn(CC3CCC(F)(F)CC3)c2c1` [P-0392, 4-[1-[(4,4-difluorocyclohexyl)methyl]-3-(1H-pyrazol-4-yl)pyrrolo[3,2-b]pyridin-6-yl]-3,5-dimethyl-isoxazole], the figures for the IC50 in the assay on MV-4-11 cells, with bromodomain and at BRD4-BD12 (1-477) were less than 1 µM, less than 10 µM and less than 1 µM, respectively.
Consider `Cc1noc(C)c1-c1cnc2c(-c3cccc(C(=O)O)c3)cn(CC3CCC(F)(F)CC3)c2c1` [P-0393, 3-[1-[(4,4-difluorocyclohexyl)methyl]-6-(3,5-dimethylisoxazol-4-yl)pyrrolo[3,2-b]pyridin-3-yl]benzoic acid], for which the half-inhibitory concentration (IC50) is less than 1 µM with MV-4-11 cells, less than 10 µM in the assay with bromodomain and less than 1 µM on BRD4-BD12 (1-477).
With `Cc1noc(C)c1-c1cnc2c(-c3cnn(C)c3C)cn(CC3CCC(F)(F)CC3)c2c1` [P-0394, 4-[1-[(4,4-difluorocyclohexyl)methyl]-3-(1,5-dimethylpyrazol-4-yl)pyrrolo[3,2-b]pyridin-6-yl]-3,5-dimethyl-isoxazole], the values for the IC50 in the assay with MV-4-11 cells, in the assay on bromodomain and at BRD4-BD12 (1-477) were less than 1 µM, less than 10 µM and less than 1 µM, respectively.
Take `Cc1nn(C)cc1-c1cn(CC2CCC(F)(F)CC2)c2cc(-c3c(C)noc3C)cnc12` [P-0395, 4-[1-[(4,4-difluorocyclohexyl)methyl]-3-(1,3-dimethylpyrazol-4-yl)pyrrolo[3,2-b]pyridin-6-yl]-3,5-dimethyl-isoxazole]: the figures for the IC50 in the assay with MV-4-11 cells, with bromodomain and at BRD4-BD12 (1-477) were less than 1 µM, less than 10 µM and less than 1 µM, respectively.
In the case of `Cc1noc(C)c1-c1cnc2c(-c3cnc(N)nc3)cn(CC3CCC(F)(F)CC3)c2c1` [P-0396, 5-[1-[(4,4-difluorocyclohexyl)methyl]-6-(3,5-dimethylisoxazol-4-yl)pyrrolo[3,2-b]pyridin-3-yl]pyrimidin-2-amine], the IC50 in the assay on MV-4-11 cells was less than 1 µM; with bromodomain, less than 10 µM; at BRD4-BD12 (1-477), less than 1 µM.
As to `Cc1ccc(-c2cn(CC3CCC(F)(F)CC3)c3cc(-c4c(C)noc4C)cnc23)cn1` [P-0397, 4-[1-[(4,4-difluorocyclohexyl)methyl]-3-(6-methyl-3-pyridyl)pyrrolo[3,2-b]pyridin-6-yl]-3,5-dimethyl-isoxazole], the values for the IC50 with MV-4-11 cells, in the assay on bromodomain and on BRD4-BD12 (1-477) were less than 1 µM, less than 10 µM and less than 1 µM, respectively.
As to `Cc1noc(C)c1-c1cnc2c(-c3cnc(N)cn3)cn(CC3CCC(F)(F)CC3)c2c1` [P-0399, 5-[1-[(4,4-difluorocyclohexyl)methyl]-6-(3,5-dimethylisoxazol-4-yl)pyrrolo[3,2-b]pyridin-3-yl]pyrazin-2-amine], the IC50 in the assay on MV-4-11 cells was less than 1 µM; with bromodomain it was less than 10 µM; on BRD4-BD12 (1-477), less than 1 µM.
In the case of `Cc1noc(C)c1-c1cnc2c(-c3cnco3)cn(CC3CCC(F)(F)CC3)c2c1` [P-0400, 4-[1-[(4,4-difluorocyclohexyl)methyl]-3-oxazol-5-yl-pyrrolo[3,2-b]pyridin-6-yl]-3,5-dimethyl-isoxazole], the IC50 in the assay with MV-4-11 cells is less than 1 µM; with bromodomain, less than 10 µM; at BRD4-BD12 (1-477) it was less than 1 µM.
With `Cc1noc(C)c1-c1cnc2c(-c3ccc(N)nc3)cn(CC3CCC(F)(F)CC3)c2c1` [P-0401, 5-[1-[(4,4-difluorocyclohexyl)methyl]-6-(3,5-dimethylisoxazol-4-yl)pyrrolo[3,2-b]pyridin-3-yl]pyridin-2-amine], the concentration for half-maximal inhibition (IC50) with MV-4-11 cells is less than 1 µM; with bromodomain it was less than 10 µM; on BRD4-BD12 (1-477) it was less than 1 µM.
As for `Cc1noc(C)c1-c1cnc2c(-c3ccc(O)nc3)cn(CC3CCC(F)(F)CC3)c2c1` [P-0402, 5-[1-[(4,4-difluorocyclohexyl)methyl]-6-(3,5-dimethylisoxazol-4-yl)pyrrolo[3,2-b]pyridin-3-yl]pyridin-2-ol], the IC50 was less than 1 µM in the assay with MV-4-11 cells, less than 10 µM in the assay on bromodomain and less than 1 µM at BRD4-BD12 (1-477).
Regarding `CNC(=O)c1ccc(-c2cn(CC3CCC(F)(F)CC3)c3cc(-c4c(C)noc4C)cnc23)cc1` [P-0403, 4-[1-[(4,4-difluorocyclohexyl)methyl]-6-(3,5-dimethylisoxazol-4-yl)pyrrolo[3,2-b]pyridin-3-yl]-N-methyl-benzamide], the figures for the IC50 with MV-4-11 cells, in the assay with bromodomain and at BRD4-BD12 (1-477) were less than 1 µM, less than 10 µM and less than 1 µM, respectively.
Turning to `COc1cc(-c2cn(CC3CCC(F)(F)CC3)c3cc(-c4c(C)noc4C)cnc23)ccc1C(=O)O` [P-0404, 4-[1-[(4,4-difluorocyclohexyl)methyl]-6-(3,5-dimethylisoxazol-4-yl)pyrrolo[3,2-b]pyridin-3-yl]-2-methoxy-benzoic acid], the IC50 is less than 1 µM in the assay on MV-4-11 cells, less than 10 µM in the assay with bromodomain and less than 1 µM at BRD4-BD12 (1-477).
Regarding `Cc1noc(C)c1-c1cnc2c(-c3cnc(C4CC4)nc3)cn(CC3CCC(F)(F)CC3)c2c1` [P-0405, 4-[3-(2-cyclopropylpyrimidin-5-yl)-1-[(4,4-difluorocyclohexyl)methyl]pyrrolo[3,2-b]pyridin-6-yl]-3,5-dimethyl-isoxazole], the figures for the IC50 in the assay on MV-4-11 cells, in the assay with bromodomain and on BRD4-BD12 (1-477) were less than 1 µM, less than 10 µM and less than 1 µM, respectively.
Turning to `Cc1noc(C)c1-c1cnc2c(-c3ccc(C(=O)O)c(F)c3)cn(CC3CCC(F)(F)CC3)c2c1` [P-0406, 4-[1-[(4,4-difluorocyclohexyl)methyl]-6-(3,5-dimethylisoxazol-4-yl)pyrrolo[3,2-b]pyridin-3-yl]-2-fluoro-benzoic acid], the IC50 in the assay with MV-4-11 cells is less than 1 µM; in the assay with bromodomain it was less than 10 µM; at BRD4-BD12 (1-477), less than 1 µM.

These data come from patent publication US10519177B2, “Heterocyclic compounds and uses thereof” (Plexxikon Inc., priority 2013, dated 2019).
